Results taken from patent US20250263404A1, “AMINOPYRIDINES AS ACTIVATORS OF PI3 KINASE” (UCL Business Ltd, priority 2021, published 2025).

What was measured:
PI3Kβ = target: T1, PI3Kβ (Homo sapiens, UniProt P42338); assay: ADP-Glo in vitro lipid kinase assay, PI3Kβ; assay type: biochemical
T1 construct: Full-length p110β/p85α and p110δ/p85α were cloned and expressed in a similar manner; Strep-tag followed by TEV protease site (N, cleaved yes); made in house; host or cells: Spodoptera frugiperda Sf9 (plasmids OP832 and OP809)
T1 sequence (P42338 whole entry, species assumed): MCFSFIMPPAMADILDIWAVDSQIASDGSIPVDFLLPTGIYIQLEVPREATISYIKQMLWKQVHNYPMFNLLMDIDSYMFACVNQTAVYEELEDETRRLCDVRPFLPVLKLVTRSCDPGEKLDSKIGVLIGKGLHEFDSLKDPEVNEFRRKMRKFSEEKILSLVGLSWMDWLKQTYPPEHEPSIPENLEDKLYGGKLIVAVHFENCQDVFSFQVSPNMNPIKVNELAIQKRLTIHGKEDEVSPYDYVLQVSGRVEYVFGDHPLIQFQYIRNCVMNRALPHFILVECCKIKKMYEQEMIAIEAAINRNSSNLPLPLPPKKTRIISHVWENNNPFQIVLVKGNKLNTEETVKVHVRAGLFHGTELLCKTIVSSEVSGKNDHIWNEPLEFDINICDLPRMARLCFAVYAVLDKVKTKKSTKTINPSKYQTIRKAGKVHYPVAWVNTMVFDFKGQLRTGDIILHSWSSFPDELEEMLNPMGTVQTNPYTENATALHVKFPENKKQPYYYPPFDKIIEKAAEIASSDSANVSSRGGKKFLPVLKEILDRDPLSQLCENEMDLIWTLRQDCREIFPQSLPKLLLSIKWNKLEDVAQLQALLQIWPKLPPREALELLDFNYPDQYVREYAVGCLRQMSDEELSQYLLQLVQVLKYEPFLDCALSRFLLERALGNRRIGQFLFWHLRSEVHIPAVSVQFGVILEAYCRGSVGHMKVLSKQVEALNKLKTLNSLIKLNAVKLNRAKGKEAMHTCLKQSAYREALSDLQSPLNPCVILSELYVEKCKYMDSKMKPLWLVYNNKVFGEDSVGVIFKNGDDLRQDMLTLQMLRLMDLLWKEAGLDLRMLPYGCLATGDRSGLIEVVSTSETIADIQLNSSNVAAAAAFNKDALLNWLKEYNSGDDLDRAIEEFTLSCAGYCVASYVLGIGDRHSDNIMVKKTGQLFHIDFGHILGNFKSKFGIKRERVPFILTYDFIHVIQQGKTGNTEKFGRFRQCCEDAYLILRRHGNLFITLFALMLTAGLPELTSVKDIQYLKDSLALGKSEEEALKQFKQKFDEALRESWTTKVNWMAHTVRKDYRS
T1 sequence (P27986 whole entry partner, species assumed): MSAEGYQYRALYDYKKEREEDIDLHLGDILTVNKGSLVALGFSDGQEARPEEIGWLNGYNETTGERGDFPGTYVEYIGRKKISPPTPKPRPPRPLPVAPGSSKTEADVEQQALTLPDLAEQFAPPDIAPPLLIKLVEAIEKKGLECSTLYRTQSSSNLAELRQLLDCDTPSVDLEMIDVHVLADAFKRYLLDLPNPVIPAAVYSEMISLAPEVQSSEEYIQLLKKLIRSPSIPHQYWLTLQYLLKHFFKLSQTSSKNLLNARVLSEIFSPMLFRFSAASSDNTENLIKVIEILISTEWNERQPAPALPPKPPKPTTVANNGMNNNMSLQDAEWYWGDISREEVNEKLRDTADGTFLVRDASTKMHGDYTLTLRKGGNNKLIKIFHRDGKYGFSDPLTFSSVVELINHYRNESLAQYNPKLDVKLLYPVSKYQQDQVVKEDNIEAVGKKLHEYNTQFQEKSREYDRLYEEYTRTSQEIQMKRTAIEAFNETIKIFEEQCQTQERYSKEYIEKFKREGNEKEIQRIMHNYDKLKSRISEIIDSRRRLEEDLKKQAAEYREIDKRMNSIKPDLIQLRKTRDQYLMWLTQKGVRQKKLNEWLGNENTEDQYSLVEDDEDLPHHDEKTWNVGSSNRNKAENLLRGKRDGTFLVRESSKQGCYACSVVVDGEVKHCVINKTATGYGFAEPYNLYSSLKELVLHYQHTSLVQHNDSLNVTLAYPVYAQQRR
Procedure: The effect of 1938 on the in vitro lipid kinase activity of p85α in complex with p110α, p110β or p110δ (further referred to as PI3Kα, PI3Kβ and PI3Kδ) was tested. As a positive control, a bis-phosphorylated phosphopeptide (a PDGF-receptor-derived peptide phosphorylated on Tyr-740 and Tyr-751, hereafter referred to as pY peptide) was used to mimic engagement of the p85α SH2 domains with tyrosine-phosphorylated peptides in membrane-bound receptors and adaptor proteins, known to activate the PI3Kα complex.
Kinase reactions were performed with ADP-Glo kinase assay kit (Promega Corporation). The enzyme, substrate and compounds were diluted in reaction buffer (20 mM HEPES, 50 mM NaCl, 50 mM KCl, 3 mM MgCl2, 1 mM EGTA, 1 mM TCEP, pH 7.4). Final concentrations of PI3Kα and PI3Kδ used were 25 nM and 50 nM for PI3Kβ. […]
For compound profiling, the reaction mixture contained 2 μl PI3K enzyme, 2 μl compound and/or pY and 2 μl of liposome substrate mixed with ATP. […] Luminescence was read using a Sense (Hidex) plate reader. […]
For characterisation of the effects of 1938 on in vitro PI3K enzymology, all reactions were performed at room temperature with 384 white-polystyrene plates (Corning #3574). […] For enzyme kinetic calculations, data was expressed as velocity (pmol of ADP generated/sec). […]

[1] = system: pAKT^S473 in MEFs and A549; assay: Time course of pAKT S473 induction in MEFs and A549; assay type: cell-based; settings: 1938 (5 μM)
Text: The inventors next monitored the activation of AKT, the best-known PI3K effector stimulated by PIP3/PI(3,4)P2 production in cells. […] As previously reported, PI3Kα-null MEFs still respond to insulin, but now in a PI3Kβ-dependent manner, as shown by sensitivity of insulin-stimulated pAKT^S473 to the PI3Kβ-selective inhibitor TGX-221 (FIG. 3b). […] Similar observations were made for mTORC1 pathway activation, as measured by S6 (Ser240/44) and 4EBP1 (Ser65) phosphorylation (FIG. 3e). […] Experiments with A549 cells and MEFs were performed separately using slightly different protocols. Briefly, A549 cells were seeded at 200,000 cells per well in 24-well plates in DMEM (10% FBS+1% P/S) and allowed to adhere overnight. The next day, cells were washed once with PBS before addition of serum-free DMEM for 24 h. On the day of treatment, cells were incubated in fresh serum-free DMEM prior to treatment. […]

effect on in vitro lipid kinase activity of PI3Kβ (PI3Kβ): not PI3Kβ
SMILES: CCN1CCN(c2ccc(Nc3cc(Nc4cccc5c4N(C(C)=O)CC5)ccn3)cc2)CC1 [Example 1938]
time of onset of pAKT^S473 induction [1]: 5 min | time of peak pAKT^S473 activation [1]: 30 min
